Source: ChEMBL document CHEMBL1667758, “Synthesis and biological activity of novel inhibitors of topoisomerase I: 2-aryl-substituted 2-bis-1H-benzimidazoles” (Eur J Med Chem, 2011)
Calls of active or inactive are those of the source. No cut-off for these calls is given here.

Key:
[1] = test system: Calf thymus DNA; experiment: Binding affinity to calf thymus DNA assessed as hypochromicity at DNA/drug ratio 4 after 15 mins by UV-vis spectrophotometer analysis; format: nucleic-acid assay; conditions: Bos taurus
[2] = test system: Calf thymus DNA; experiment: Binding affinity to calf thymus DNA after 5 mins by fluorescence assay; format: nucleic-acid assay; conditions: Bos taurus
[3] = Lipophilicity, log P of the compound; format: physicochemical; conditions: octanol/water
[4] = Cytotoxicity against human U87 cells after 72 hrs by MTT assay; format: functional, cell-based, U-87MG ATCC; conditions: U-87 MG
[5] = Ratio of compound IC50 to Hoechst 33342 IC50 for human U87 cells; format: functional, U-87MG ATCC
[6] = test system: MCF7; experiment: Ratio of compound IC50 to Hoechst 33342 IC50 for human MCF7 cells; format: functional
[7] = test system: HeLa; experiment: Ratio of compound IC50 to camptothecin IC50 for human HeLa cells; format: functional
[8] = species: Homo sapiens; experiment: Inhibition of human purified topoisomerase 1b-mediated relaxation of supercoiled pBS (SK+) DNA at 25 uM after 30 mins by agarose gel electrophoresis
[9] = test system: MCF7; experiment: cells; conditions: Homo sapiens, MCF7, 72 h
Description: Cytotoxicity against human MCF7 cells after 72 hrs by MTT assay

[10] = test system: HeLa; experiment: cells; conditions: Homo sapiens, 72 h
Description: Cytotoxicity against human HeLa cells after 72 hrs by MTT assay

[11] = test system: HeLa; experiment: Ratio of compound IC50 to Hoechst 33342 IC50 for human HeLa cells; format: functional
[12] = species: Homo sapiens; experiment: Inhibition of human purified topoisomerase 1b-mediated relaxation of supercoiled pBS (SK+) DNA at 50 uM after 30 mins by agarose gel electrophoresis
[13] = species: Homo sapiens; experiment: Inhibition of human purified topoisomerase 1b-mediated relaxation of supercoiled pBS (SK+) DNA at 75 uM after 30 mins by agarose gel electrophoresis
[14] = species: Homo sapiens; experiment: Inhibition of human purified topoisomerase 1b-mediated relaxation of supercoiled pBS (SK+) DNA at 10 uM after 30 mins by agarose gel electrophoresis

| SMILES | Activity [1] [%] | Activity [2] | logP [3] | IC50 [4] [nM] | Ratio IC50 [5] | Ratio IC50 [6] | Ratio IC50 [7] | Activity [8] | IC50 [9] [nM] | IC50 [10] [nM] | Ratio IC50 [11] | inhibition [12] [%] | inhibition [13] [%] | inhibition [14] [%] |
| --- | --- | --- | --- | --- | --- | --- | --- | --- | --- | --- | --- | --- | --- | --- |
| CN1CCN(c2ccc3nc(-c4ccc5nc(-c6ccc(Cl)cc6Cl)[nH]c5c4)[nH]c3c2)CC1 | 28 | Active | 4.85 | 1500 | 2.8 | 2.6 | 3 | Active | 1300 | 600 |  |  |  |  |
| CCOc1ccc(-c2nc3cc(-c4nc5cc(N6CCN(C)CC6)ccc5[nH]4)ccc3[nH]2)cc1 | 38 | Active | 3.95 | 4200 |  |  |  |  | 500 | 300 | 2 |  |  |  |
| COc1ccc(-c2nc3cc(-c4nc5cc(N6CCN(C)CC6)ccc5[nH]4)ccc3[nH]2)cc1OC | 1 |  | 3.48 | > 100000 |  |  |  |  | 5300 | 3400 |  | 90 | 90 |  |
| CN1CCN(c2ccc3nc(-c4ccc5nc(-c6ccc(F)cc6F)[nH]c5c4)[nH]c3c2)CC1 | -20 | Active | 4.05 | 5500 |  |  |  | Active | 5500 | 1500 |  |  |  |  |
| CC[C@@]1(O)C(=O)OCc2c1cc1n(c2=O)Cc2cc3ccccc3nc2-1 [CAMPTOTHECIN] |  |  |  | 500 |  |  |  |  | 650 | 1500 |  |  |  | 80 |
| COc1cc(-c2nc3ccc(-c4nc5ccc(N6CCN(C)CC6)cc5[nH]4)cc3[nH]2)cc(OC)c1OC | 27 |  | 3.36 | > 100000 |  |  |  |  | 16800 | 29300 |  | 90 | 90 |  |
